{"source": "patent US20260191887A1", "about": "“METHODS OF TREATING INFLAMMATION” (THERAPEUTIKOS, INC., priority 2022, published 2026)", "key": {"[1]": {"system": "primary human chondrocytes", "test": "WST-1 cell proliferation assay in primary human chondrocytes with IL-1β", "type": "cell-based", "conditions": "IL-1β 5 ng/mL, concentrations up to 5 mM, n=6", "excerpt": "Normal cartilage tissues. Articular cartilages were harvested from the femoral condyles and the tibial plateaus, which were obtained from autopsy services at the hospital of UVA and approved by the Institutional Review Board. All tissue samples were graded according to a modified Mankin scale, and only cartilages without evidence of osteoarthritis were used as a source of chondrocytes. The interval between death and the time the cartilages were harvested from these knee joints in the laboratory were at least 24 h and ranged up to 96 h. Cartilage shavings were harvested at the operation room and placed in tissue culture medium (DMEM, 10% FBS, penicillin, streptomycin), and shipped to the laboratory at 4° C. The tissues were processed in the laboratory within 24 h after harvest.\nChondrocytes were isolated from the cartilage by collagenase digestion and maintained in continuous monolayer cultures in DMEM containing 10% FBS. Cell viability after chondrocyte isolation by collagenase digestion of normal cartilage was >95%, determined by the typan blue stain (Sigma-Aldrich). Experiments were performed with primary or first passage cells. When necessary, trypsin will be used for cell passage.\nHuman chondrocytes were seeded in a 96-well plate (5×10^4/well) and incubated with culture medium overnight. […]"}, "[2]": {"system": "leukocytes migration to the peritoneal cavity", "test": "Leukocyte migration to the peritoneal cavity in LPS-induced systemic inflammation in mice", "type": "in vivo, mouse", "conditions": "LPS 10 mg/kg I.P., compound 200 or 300 mg/kg I.V., vs LPS alone", "procedure": "(§1) Male C57BL6/J mice (8 to 10-week-old, 20-25 g) purchased from Charles River were used in this study. Mice were kept in the animal facility of the School of Medicine, University of Virginia (UVa). All experimental procedures were approved by the Ethics Committee on Animal Research of Medical School, UVa and are in accordance with the Guidelines of the National Council for Animal Experimentation Control (CONCEA).\n(§2) Moderate endotoxemia by LPS was induced with a single dose (10 mg/Kg, i.p.) of LPS (Escherichia coli 0111:B4, Sigma Chemical Co., St. Louis, MO, United States), 30 min after intravenous injection of NAG or NDX1 or NDX2 or the vehicle (saline). Two doses (200 mg/kg body weight and 300 mg/kg body weight) were tested for NAG, NDX1 and NDX2. Animals without any treatment were used to obtain the baseline data. Six hours after LPS treatment, inflammation assays were performed as described below. A total of 40 animals were randomly divided into 5 groups (8 mice/group): non-treatment (NT); 10 mg/Kg LPS plus saline (LPS); 10 mg/Kg LPS plus NAG (LPS+NAG); 10 mg/Kg LPS plus NDX1 (LPS+NDX1); and 10 mg/Kg LPS plus NDX2 (LPS+NDX2). The experiment was duplicated.\nPeritoneal cells were collected by lavage with ice-cold Dulbecco's modified Eagle's medium (DMEM, Gibco BRL, Gaithersburg, MD). […]"}, "IL-6 [3]": {"system": "IL-6", "test": "Serum IL-6 ELISA in LPS-induced systemic inflammation in mice", "type": "in vivo, mouse", "conditions": "LPS 10 mg/kg I.P., compound 300 mg/kg I.V.", "procedure": "as §1, §2\n(§3) TNFa and IL-6 concentrations in the serum were determined using enzyme-linked immunosorbent assay (ELISA) according to the manufacturer's instructions. […] The resultant solutions were read at 450 nm on a microplate reader."}, "TNFa": {"system": "TNFa", "test": "Serum TNFa ELISA in LPS-induced systemic inflammation in mice", "type": "in vivo, mouse", "conditions": "LPS 10 mg/kg I.P., compound 300 mg/kg I.V.", "procedure": "as §1, §2, §3"}, "nitric oxide": {"system": "nitric oxide", "test": "Griess nitrite production assay in LPS-activated RAW264.7 macrophages", "type": "cell-based, mouse", "conditions": "LPS 100 ng/mL; NDX1 0.2, 1 and 5 mM, NDX2 0.5 and 5 mM, NAG 0.5-5 mM; n=6", "procedure": "(§4) Mouse RAW264.7 macrophage cell line (ATCC; Manassas, VA, USA) was maintained in DMEM culture medium containing 10% FBS and 1% antibiotic mix. For cell treatment, the test drugs at different doses were added to the culture 0.5 h prior to addition of 100 ng/mL LPS (Sigma-Aldrich Co., St Louis, MO, USA) and then cells were co-treated with LPS for 24 hours.\nThe Griess reagent system is based on the chemical reaction which uses sulfanilamide and N-1-napthylethylenediamine dihydrochloride (NED) under acidic (phosphoric acid) conditions. This system detects nitrite production. In the present experiments, nitric oxide detection was performed by a commercial kit (Promega Corporation, Madison, WI, USA), according to the manufacturer's manual. Briefly, all experimental samples and standards containing the dilution series for the nitrite standard reference curve were mixed with 50 μL of the sulfanilamide solution and incubated 10 mins at room temperature without light in a 96-well plate. Then 50 μL of the NED Solution was added to each well and incubated 10 mins at room temperature without light. The optical density (OD) was determined at 530 nm on a microplate reader within 30 mins. No LPS and the other drugs were added in the non-treatment group (NT). The experiment was duplicated. There were six repeats in each group (n=6). […]."}, "IL-6 [4]": {"system": "IL-6", "test": "IL-6 ELISA in LPS-activated RAW264.7 macrophages", "type": "cell-based, mouse", "conditions": "LPS 100 ng/mL, concentrations up to 5 mM, n=8", "procedure": "as §4\nThe amounts of IL-6 in culture medium from different treatments were measured by a commercial ELISA kit (Sigma-Aldrich), following the instructions provided by the manufacturer. Briefly, cells were seeded on a 96-well plate and various treatments were performed. The culture medium were collected and mixed with different assay reagents step by step. The resultant solutions were read at 450 nm on a microplate reader. There were eight repeats in each group (n=8). *P<0.05 vs LPS group. The experiment was duplicated."}}}
{"molecule": "CC(=O)N[C@H]1C(O)O[C@H](CO)[C@@H](O)[C@@H]1O", "note": "(stereo partly drawn) [NAG, N-acetyl glucosamine]", "values": [{"measurement": "effect on cell growth / toxicity (WST-1)", "setting": "[1]", "value": "could prevent inhibition of cell proliferation induced by IL-1β"}, {"measurement": "decrease of leukocytes migration to the peritoneal cavity (WST-1 test or DAPI staining)", "setting": "[2]", "value": "neither NAG nor NDX2 did"}, {"measurement": "decrease of serum level of IL-6", "setting": "IL-6 [3]", "value": "significantly decrease serum levels"}, {"measurement": "decrease of serum level of TNFa", "setting": "TNFa", "value": "significantly decrease serum levels"}, {"measurement": "inhibition of nitric oxide (nitrite) production", "setting": "nitric oxide", "value": "couldn't"}, {"measurement": "reduction of IL-6 production (ELISA)", "setting": "IL-6 [4]", "value": "could significantly reduce IL-6 production"}]}
